Results on two molecules are retold here after US20240307325A1, “COMPOUNDS, COMPOSITIONS, AND METHODS FOR TREATING OR AMELIORATING NONALCOHOLIC FATTY LIVER DISEASE AND RELATED DISEASES OR DISORDERS” (Thomas Jefferson University, priority 2021, published 2024).

Molecules are shown by their SMILES.

Series [1] deals with CEREP Safety 44 panel. Description: CEREP Safety 44 panel screen.
The nature of series [2]: Oral bioavailability. Particulars: in vivo.
In series [3] the test system is mouse. The series is described as follows: Tumor xenograft experiments with daily oral dosing: tolerability. As to conditions: daily oral dosing extended beyond 4 weeks. Type of series: in vivo.
Series [4] concerns HFD fed mice. The series is described as follows: High fat diet-induced hepatic steatosis and whitening of brown adipose tissue in mice. Type of series: in vivo. As to conditions: versus vehicle, H&E staining. The text has this: FIG. 6A illustrate certain aspects of the study design. […] FIG. 6B show H&E staining images of liver from mice in FIG. 6A. […] Representative images from H&E-stained BAT of mice after an 8-week HFD. Images taken at 14×, scalebar=200 um.
(§1) Refer to FIGS. 5 and 6A-6C, pharmacological inhibition of Sigma1 phenocopy certain aspects of Sigma1 knockdown. […] The small molecule inhibitor IPAG also eliminate oleic acid, cholesterol, and glucose induced lipid droplets by lipophagy (FIG. 5).

Series [5] relates to TNFα. Description: Pro-inflammatory cytokine levels in HT-29 cells: TNFα. Type of series: cell-based, human. The text has this:
(§2) The fibrosis associated pro-inflammatory cytokines include soluble IL-6, TNFα, and IL-17, which are contributors to the progression of NAFLD to NASH with fibrosis.

Series [6] deals with IL-17. Description: Pro-inflammatory cytokine levels in HT-29 cells: IL-17. The series is classed as cell-based, human.
Source text: as §2

The target of series [7] is Sigma1 (Homo sapiens, UniProt Q99720). As to conditions: read-out: Ki (binds Sigma1).
For series [8], the system named is liver. As to conditions: even at doses that exceed the concentrations proposed herein; cited from earlier work.
In series [9] the test system is LNCaP cells. The series is described as follows: DHT-induced lipid droplet formation and accumulation in LNCaP cells (confocal, HCS-LipidTox stain). The series is classed as cell-based. Particulars: 72 h 1 nM DHT, compound 10 uM for the final 16 hours. The procedure: FIGS. 4A-4B illustrate the finding that Sigma1 (σ1) knockdown by transduction of SIGMAR1 targeted shRNA using a lentiviral vector abrogates lipid droplet (LD) accumulation, in accordance with some embodiments. FIG. 4A: Confocal micrographs of LNCaP cells treated with 72 hours (72 h) with dihydrotestosterone (DHT) to induce the formation and accumulation of LDs. Non-specific Control shRNA was compared to SIGMAR1 transcript selective shRNAs in lentiviral vectors. σ1 shR #4=MISSION/SigmaAldrich clone TRCN0000061010: σ1 shR #5=MISSION/SigmaAldrich clone TRCN0000061008. White boxes indicate areas magnified and shown immediately below. Note nearly complete elimination of LDs. FIG. 4B: Immunoblot confirming knockdown of Sigma1 by lentiviral Sigma1 (σ1) shRNAs. LDs are stained with HCS-LipidTox fluorescent stain in red. Blue DAPI stained nuclei.
FIG. 5 illustrates the finding that pharmacological Sigma1 modulator/inhibitor 1-(4-Iodophenyl)-3-(2-adamantyl)guanidine (IPAG) eliminates lipid droplets (LDs), in accordance with some embodiments. Confocal micrographs of LNCaP cells treated with 72 hours (72 h) with 1 nM dihydrotestosterone (DHT) to induce the formation and accumulation of LDs. In the far right panel, the LNCaP cells were treated with a prototypic Sigma1 selective small molecule compound, IPAG (10 uM), for the final 16 hours of the 72 h DHT treatment period. […]

Series [10] has as its system lipid droplets. Description: Oleic acid, cholesterol and glucose induced lipid droplets. The series is classed as cell-based. Particulars: by lipophagy.
Source text: as §1

As usually defined, the Ki is a measure of affinity in units of concentration, obtained from inhibition or displacement.

Sequence of Sigma1 (Q99720 whole entry): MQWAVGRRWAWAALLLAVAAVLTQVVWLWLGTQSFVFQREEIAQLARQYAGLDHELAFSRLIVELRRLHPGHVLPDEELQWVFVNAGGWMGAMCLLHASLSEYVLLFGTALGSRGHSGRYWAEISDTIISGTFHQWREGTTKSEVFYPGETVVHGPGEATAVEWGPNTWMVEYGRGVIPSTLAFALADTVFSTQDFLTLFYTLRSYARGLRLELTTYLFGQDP

On to `N=C(NCCCOc1ccc(F)cc1)Nc1ccc(Cl)cc1` [CT-189, 1-(3-(4-fluorophenoxy)propyl)-3-(4-chlorophenyl)guanidine], for which, in series [1], the off-target liabilities entry was “limited off-target liabilities”. In [2], the oral bioavailability entry is reported as “orally bioavailable”. In addition, in series [3], the “changes in mouse behavior” value is “no detectable changes” and the “changes in mouse body weight” value is “no detectable changes”. Moreover, in series [4] (HFD fed mice (8-week HFD), oral), the “level of whitening of brown adipose tissue” value was “significantly reduced”. The “level of liver fat” value in [4] (HFD fed mice, oral (PO 3 days per week)) is “significantly reduced”. For the same molecule, the “level of TNFα” value in [5] was “suppresses levels”. Moreover, the “level of IL-17” value in [6] was “suppresses levels”. In addition, in series [7], the Ki amounted to 38 nM. In series [8], the liver toxicity result is on record as “does not induce liver toxicity”.

For `N=C(Nc1ccc(I)cc1)NC1C2CC3CC(C2)CC1C3` (stereo not drawn) [IPAG, 1-(4-Iodophenyl)-3-(2-adamantyl)guanidine], in series [9], the “lipid droplets (LDs)” value is “eliminates”. Moreover, in [10], the “oleic acid, cholesterol, and glucose induced lipid droplets” value is “eliminate”.
